Here are results for 1 molecule from patent US20100184848A1, “TRANSDERMAL FORMULATIONS OF SYNTHETIC CANNABINOIDS AND NANO COLLOIDAL SILICA” (priority 2006, published 2010).

The series concerns patients in treatment for chronic neuropathic pain. Nature of the series: 42 patient physician-sponsored open label clinical study of the compounded transdermal formulation. The class given is in vivo. As to conditions: about 1/4 gm applied to site of pain twice a day; overall trial 18 months. Here is the method:
A number of examples of formulations of the invention were made. The formulations were used in the 42 patient open-label study of Example 2 and applied under “Cannacreme-C” 60 gm.
A 42 patient open label clinical study was performed as a physician sponsored study of patients in treatment for chronic pain with different diagnoses.
Patients ranged in age from 30 to 70 years old and were both male and female. […]
Outcome measures included a patient's own subjective report, clinician's notes, as well as questionnaires such as the McGill Pain Questionnnaire (Melzack R., Pain. 1:277-299, 1975), Fibromyalgia impact Questionnaire (Burckhardt, C. S. et al., J. Rheumatol. 18:728-733, 1991), Visual Analogue Pain Rating Scale (such as reviewed in Wewers M. E. and Lowe N. K. Res. Nursing Health 13:227-236, 1990), and Likert Pain Scales (Likert, R. Arch. Psychol. 140: 55, 1932). Objective electrophysiological monitoring including Quantitative Sensory Testing, Electromyogram, and Nerve Conduction Studies, as required from patient to patient. […]

For `CCCCCCC(C)(C)c1cc(O)c2c(c1)OC(C)(C)C1CCC(=O)CC21` (stereo not shown) [Nabilone, 3-(1,1-dimethylheptyl)-6,6a,7,8,10,10a-hexahydro-1-hydroxy-6,6-dimethyl-9H-dibenzo[b,d]pyran-9-one], the “local site sensitization, irritation or Adverse Drug Reaction” value is given as “no reports of local site sensitization or irritation”.
